Experimental data published in patent publication US6005099A, “Glucosamine disaccharides, method for their preparation, pharmaceutical composition comprising same, and their use” (priority 1993, dated 1999).
≈ marks a conversion by molar mass, not a printed value. Entries after “also recorded” stand apart in the source; their conditions may differ.

Tests used:
[1] = tested on: Limulus amoebocyte lysate (LAL); assay: Endotoxicity, LAL gelification test; assay type: biochemical, Limulus polyphemus; conditions: ng LPS per ng product, n = 2-12
Method: (§1) The endotoxicity and the biological activity of disaccharide A (example 1) and of disaccharide B (example 2) were determined and compared to that of lipopolysaccharide originating from Escherichia coli O111:B4 (Sigma, Product No. L3024), lipid A (Sigma, Product No. L5399; used as a starting material in example 4), and 3-O-deacylated lipid A originating from lipid A of Escherichia coli F583 (prepared as in the comparative example), but without purification by HPLC.
(§2) The endotoxicity was determined in the Limulus amoebocyte lysate (LAL) test. This test is based on the observation that endotoxins induce coagulation of the hemolymph of Limulus polyphemus.
(§3) In the gelification test serial dilutions of the compound to be tested were mixed with LAL 1:1, (v/v) (Haemachem Inc., sensitivity LAL 0.06 endotoxin units/ml), and the mixture was incubated for one hour at 37° C. Then gel formation was monitored by measuring the optical density at 405 nm. The last dilution which formed a gel was determined by inverting the reaction microplate. The endotoxin activity in the samples was determined by comparison with dilutions of a lipopolysaccharide standard (1 endotoxin unit=0.1 ng LPS).
(§4) The results are expressed in table 3 as: ng LPS per ng product.

protease in LAL [2] = assay: Endotoxicity, chromogenic LAL test; assay type: biochemical, Limulus polyphemus; conditions: ng LPS per ng product, n = 1-10
Method: as §1, §2
(§5) The endotoxicity was also measured in the chromogenic test, in which the activation of a protease in LAL by LPS was measured using a chromogen (Ac-Ile-Glu-Ala-Arg-pNA; Bio Whittaker Kit No. 50-650U). The colour formation (liberation of pNA (p-nitroaniline)) was measured at 405 nm.
(§6) Samples were pre-incubated at 37° C. during 10 minutes and subsequently chromogen-comprising LAL was added. The time required for reaching an optical density of 0.2 at 405 nm was measured. The endotoxin activity was calculated in comparison to a reference curve obtained for LPS standards.
as §4

[3] = tested on: macrophages of C57BL/6 mice; assay: Nitric oxide (NO) production in supernatants of macrophages; assay type: cell-based
Method: (§7) Bone marrow was collected from hip, femur and tibia of six week old male C57BL/6 mice.
(§8) After 7 days the mature macrophages were collected and resuspended in Dulbecco modified medium comprising 5% foetal calf serum to a concentration of 7×10^6 cells per ml. This cell suspension was mixed 1:1, (v/v) with samples diluted in the same medium and used in the biological tests performed in microplates with 70,000 cells/well (incubation at 37° C. for 22 hours, 100% humidity and 8% CO2).
Nitric oxide (NO) is produced by macrophages in response to bacterial infection and in particular LPS. NO seems to have cytostatic and cytotoxic properties. NO is extremely reactive and rapidly converted by oxidation into nitrite and nitrate.
The nitrite formation was determined using the Griess test (addition of 1:1, (v/v) N-(1-naphthyl)ethylene diamine hydrochloride [1 g/l in water] and p-aminobenzenesulphonamide [10 g/l in 5% H3 PO4 ]). The nitrite concentration in supernatants of activated macrophages was calculated in comparison to NaNO2 standards.

[4] = tested on: macrophages of C57BL/6 mice; assay: Production of interleukin-1α (IL-1α) in supernatants of macrophages, ELISA; assay type: cell-based
Excerpt: (§9) Bone marrow was collected from hip, femur and tibia of six week old male C57BL/6 mice. After homogenization of the marrow suspension in Dulbecco modified medium and centrifugation, the pellet was resuspended in Dulbecco modified medium and the cells were cultivated at a concentration of 4×10^5 cells per ml in the same medium supplemented with 30% supernatant of L-929 fibroblasts (a common source for colony stimulating factor 1 [CSF-1]) and 20% horse serum.
as §8
The concentration of IL-1α in the supernatants of macrophages was measured by an ELISA-test (Kit GENZYME, Intertest-1α).

[5] = tested on: macrophages of C57BL/6 mice; assay: Production of TNF-α in supernatants of macrophages, ELISA; assay type: cell-based
Excerpt: as §9, §8
The concentration of TNF-α in supernatants of macrophages was determined by an ELISA test (Kit GENZYME, Factor-test mTNF-α).

[6] = tested on: macrophages of C57BL/6 mice; assay: Prostaglandin E2 (PGE2) production in supernatants of macrophages, RIA; assay type: cell-based
Method: as §7, §8

NMRI mice = assay: Acute toxicity in NMRI mice; assay type: in vivo; conditions: caudal vein, up to 100 mg/kg
Method: Disaccharide A was injected into the caudal vein of male and female NMRI mice (age 6-7 weeks).

protease in LAL [7] = assay: Endotoxicity, chromogenic LAL test with 0.1 mg/ml bovine serum albumin; assay type: biochemical, Limulus polyphemus; conditions: n=4 or 6
Method: as §5, §6
The endotoxicity of the disaccharides E, F and G was determined using the chromogenic LAL test (see infra). However, instead of using 1 mg/ml bovine serum albumin, 0.1 mg/ml has been used. The results (n=4 or 6) were obtained in two series of experiments and are shown hereafter.

[8] = tested on: Limulus amoebocyte lysate (LAL); assay: Endotoxicity in the limulus amoebocyte lysate (LAL) test (gelification and chromogenic); assay type: biochemical, Limulus polyphemus
Method: as §1, §2, §3
The endotoxicity was also measured in the chromogenic test, in which the activation of a protease in LAL by LPS was measured using a chromogen (Ac-Ile-Glu-Ala-Arg-pNA; Bio Whittaker Kit No. 50-650U). […]

[9] = highest concentration tested 500 μg/ml

CCCCCCCCCCCC(=O)O[C@H](CCCCCCCCCCC)CC(=O)N[C@H]1[C@H](OC[C@H]2O[C@H](OP(=O)(O)O)[C@H](NC(=O)C[C@H](O)CCCCCCCCCCC)[C@@H](O)[C@@H]2O)O[C@H](CO)[C@@H](OP(=O)(O)O)[C@@H]1O [disaccharide A, 2-Deoxy-6-O-[2-deoxy-2-[(R)-3-dodecanoyloxytetradecanoylamino]-4-O-phosphono-β-D-glucopyranosyl]-2-[(R)-3-hydroxytetradecanoylamino]-α-D-glucopyranosyl dihydrogenphosphate]
Endotoxic activity in LAL, gelification [1]: 0.003 ± 0.002 ng/ng | Endotoxic activity in LAL, chromogen (protease in LAL [2]): 0.0014 ± 0.0013 ng/ng | EC50 ([3]; Mus musculus, Macrophage, product concentration corresponding to 50% activity, 22 hours, 37° C.): 0.16 µg/mL (≈ 0.141 µM) | minimal effective concentration ([3]; Mus musculus, Macrophage, product concentration corresponding to induced NO activity, 22 hours, 37° C., read-out: NO production: Minimum activity (product concentration)): 0.016 µg/mL | NO activity at 50% in nmol of NO2- /ml ([3]; extrapolated from the series dilution curve): 5 nmol of NO2- /ml | NO production, in words ([3]; macrophages of C57BL/6 mice): induce NO production of the same order; also recorded: as strongly as lipid A and 3-O-deacylated lipid A | NO production: Maximum activity (product concentration) ([3]; product concentration corresponding to induced NO activity, 22 hours, 37° C.): 50 µg/mL | IL-1α at concentration 500 μg/ml ([4]; 500 μg/ml): 75 ± 45 pg/mL | minimal effective concentration ([4]; Mus musculus, Macrophage, 22 h, detection limit in the order of 15 pg/ml, read-out: IL-1α: Minimum activity detected, concentration): 16 µg/mL | IL-1α at minimum activity detected ([4]; at the concentration of minimum activity, LPS 1.56, lipid A 50, 3-O-deacylated lipid A 160, disaccharide A 16 μg/ml): 19 ± 11 pg/mL | IL-1α at highest concentration tested [4, 9]: 75 ± 45 pg/mL | IL-1α production, in words ([4]; macrophages of C57BL/6 mice, comparison partly at 500 μg/ml): not significantly different; also recorded: at least as strong as by lipid A and 3-O-deacylated lipid A | TNF-α at concentration 500 μg/ml ([5]; 500 μg/ml): 530 ± 139 pg/mL | minimal effective concentration ([5]; Mus musculus, Macrophage, 22 h, detection limit in the order of 100 pg/ml, read-out: TNF-α: Minimum activity detected, concentration): 0.16 µg/mL | TNF α at minimum activity detected ([5]; at the concentration of minimum activity, LPS 0.006, lipid A 0.016, 3-O-deacylated lipid A 0.016, disaccharide A 0.16 μg/ml): 159 ± 43 pg/mL | TNF-α at highest concentration tested [5, 9]: 530 ± 139 pg/mL | TNF-α production, in words ([5]; macrophages of C57BL/6 mice): equally or more strongly than lipid A or 3-O-deacylated lipid A | PGE2 at highest concentration inducing an activity ([6]; 500 μg/ml, detection limit of the order of 80 pg/ml): 540 ± 65 pg/mL | PGE2 at lowest concentration inducing an activity ([6]; LPS 6.25, 3-O-deacylated lipid A 500, disaccharide A 16 μg/ml, detection limit of the order of 80 pg/ml): 80 ± 41 pg/mL | minimal effective concentration ([6]; Mus musculus, Macrophage, 22 h, detection limit of the order of 80 pg/ml, read-out: PGE2: Lowest concentration inducing an activity): 16 µg/mL | PGE2: Highest concentration inducing an activity ([6]; highest concentration used): 500 µg/mL | PGE2 production, in words ([6]; macrophages of C57BL/6 mice): significantly lower than for LPS; also recorded: more active than lipid A and 3-O-deacylated lipid A | Acute toxicity, deaths (NMRI mice): did not induce any death | Endotoxic activity in LAL (protease in LAL [7]): 0.000003 ± 0.000002 mg/mg | Endotoxicity in LAL, in words [8]: lowest endotoxicity
